Among the data in ChEMBL document CHEMBL3991601, “The target landscape of clinical kinase drugs” (Science, 2017) are Kd values, retold here.

Activity calls are given as the source filed them.

The target in test [1] is Membrane-associated progesterone receptor component 1 (Homo sapiens, UniProt O00264).
For test [2], the target named is Ephrin type-A receptor 7 (Homo sapiens, UniProt Q15375).
Test [3] addresses T1, Eukaryotic translation initiation factor 5B (Homo sapiens, UniProt O60841).
T1 sequence (O60841 whole entry): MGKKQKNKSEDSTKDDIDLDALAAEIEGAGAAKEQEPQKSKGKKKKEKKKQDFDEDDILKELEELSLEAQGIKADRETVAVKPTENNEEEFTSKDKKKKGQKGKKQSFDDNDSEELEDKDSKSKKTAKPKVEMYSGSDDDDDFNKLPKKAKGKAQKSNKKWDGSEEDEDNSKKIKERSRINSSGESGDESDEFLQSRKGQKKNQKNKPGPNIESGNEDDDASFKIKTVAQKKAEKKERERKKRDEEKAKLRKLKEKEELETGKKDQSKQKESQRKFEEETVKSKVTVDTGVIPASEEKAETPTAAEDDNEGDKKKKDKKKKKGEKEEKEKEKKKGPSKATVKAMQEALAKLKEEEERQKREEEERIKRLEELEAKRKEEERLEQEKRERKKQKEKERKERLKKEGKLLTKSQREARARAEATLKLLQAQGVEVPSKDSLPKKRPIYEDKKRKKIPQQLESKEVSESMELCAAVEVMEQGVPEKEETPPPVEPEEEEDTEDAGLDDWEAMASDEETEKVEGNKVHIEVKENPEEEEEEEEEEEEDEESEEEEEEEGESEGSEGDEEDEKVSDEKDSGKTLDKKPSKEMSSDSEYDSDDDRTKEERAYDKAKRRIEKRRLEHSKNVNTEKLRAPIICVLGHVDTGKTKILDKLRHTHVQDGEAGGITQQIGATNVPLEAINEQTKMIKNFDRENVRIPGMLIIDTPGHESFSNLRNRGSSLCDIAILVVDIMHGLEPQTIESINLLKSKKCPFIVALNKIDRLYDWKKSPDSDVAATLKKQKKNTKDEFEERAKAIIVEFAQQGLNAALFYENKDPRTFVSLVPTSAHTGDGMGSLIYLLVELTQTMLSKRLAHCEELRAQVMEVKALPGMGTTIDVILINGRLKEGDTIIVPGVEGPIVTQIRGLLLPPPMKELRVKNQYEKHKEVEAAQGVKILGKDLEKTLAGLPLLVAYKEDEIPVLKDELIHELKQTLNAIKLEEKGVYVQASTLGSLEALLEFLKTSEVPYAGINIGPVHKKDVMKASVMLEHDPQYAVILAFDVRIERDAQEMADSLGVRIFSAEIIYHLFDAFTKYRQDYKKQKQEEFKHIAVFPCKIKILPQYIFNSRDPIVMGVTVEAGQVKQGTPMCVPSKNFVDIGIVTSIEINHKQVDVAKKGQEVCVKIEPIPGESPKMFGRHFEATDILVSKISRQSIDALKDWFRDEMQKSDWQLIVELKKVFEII

The target of test [4] is T2, Dual specificity protein kinase TTK (Homo sapiens, UniProt P33981).
T2 sequence (P33981 whole entry): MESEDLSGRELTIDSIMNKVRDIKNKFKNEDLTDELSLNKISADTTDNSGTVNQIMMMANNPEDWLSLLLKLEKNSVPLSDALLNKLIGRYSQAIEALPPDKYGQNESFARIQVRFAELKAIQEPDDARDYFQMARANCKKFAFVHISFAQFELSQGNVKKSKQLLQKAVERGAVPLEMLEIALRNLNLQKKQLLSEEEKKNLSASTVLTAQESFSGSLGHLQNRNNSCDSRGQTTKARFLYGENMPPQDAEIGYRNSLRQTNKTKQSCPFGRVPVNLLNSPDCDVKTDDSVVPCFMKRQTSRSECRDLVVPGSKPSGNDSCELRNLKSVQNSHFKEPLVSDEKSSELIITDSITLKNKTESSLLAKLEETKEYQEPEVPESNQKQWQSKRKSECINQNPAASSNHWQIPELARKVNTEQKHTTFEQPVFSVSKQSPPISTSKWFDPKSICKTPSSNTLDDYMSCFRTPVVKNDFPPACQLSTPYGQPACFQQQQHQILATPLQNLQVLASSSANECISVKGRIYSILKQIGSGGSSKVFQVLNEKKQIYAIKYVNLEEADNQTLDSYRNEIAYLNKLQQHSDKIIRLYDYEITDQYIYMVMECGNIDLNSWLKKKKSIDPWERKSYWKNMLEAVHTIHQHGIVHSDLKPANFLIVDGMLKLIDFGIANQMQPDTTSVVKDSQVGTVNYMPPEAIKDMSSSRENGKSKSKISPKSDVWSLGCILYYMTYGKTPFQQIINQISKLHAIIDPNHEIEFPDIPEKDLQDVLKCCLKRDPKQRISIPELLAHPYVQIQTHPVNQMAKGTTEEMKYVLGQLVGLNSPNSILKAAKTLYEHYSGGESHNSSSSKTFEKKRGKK

The target in test [5] is T3, Phosphatidylinositol 5-phosphate 4-kinase type-2 alpha (Homo sapiens, UniProt P48426).
T3 sequence (P48426 whole entry): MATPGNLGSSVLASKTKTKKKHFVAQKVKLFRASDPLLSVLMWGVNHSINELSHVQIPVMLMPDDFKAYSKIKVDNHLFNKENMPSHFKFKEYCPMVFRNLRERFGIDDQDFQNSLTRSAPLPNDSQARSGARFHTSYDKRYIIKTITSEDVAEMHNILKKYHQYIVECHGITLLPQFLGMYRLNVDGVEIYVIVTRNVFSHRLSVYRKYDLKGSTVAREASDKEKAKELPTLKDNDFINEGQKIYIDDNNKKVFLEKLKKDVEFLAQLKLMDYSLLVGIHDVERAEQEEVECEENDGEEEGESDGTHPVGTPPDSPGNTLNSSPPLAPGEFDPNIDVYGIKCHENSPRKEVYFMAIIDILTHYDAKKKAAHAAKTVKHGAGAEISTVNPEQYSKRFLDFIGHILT

The target of test [6] is Misshapen-like kinase 1 (Homo sapiens, UniProt Q8N4C8).
Test [7] has as its target Epidermal growth factor receptor (Homo sapiens, UniProt P00533).
The target of test [8] is Serine/threonine-protein kinase 38-like (Homo sapiens, UniProt Q9Y2H1).
Note: in the data inactive means no Kd found up to 30 µM.

Chain of Ephrin type-A receptor 7 (Q15375 whole entry): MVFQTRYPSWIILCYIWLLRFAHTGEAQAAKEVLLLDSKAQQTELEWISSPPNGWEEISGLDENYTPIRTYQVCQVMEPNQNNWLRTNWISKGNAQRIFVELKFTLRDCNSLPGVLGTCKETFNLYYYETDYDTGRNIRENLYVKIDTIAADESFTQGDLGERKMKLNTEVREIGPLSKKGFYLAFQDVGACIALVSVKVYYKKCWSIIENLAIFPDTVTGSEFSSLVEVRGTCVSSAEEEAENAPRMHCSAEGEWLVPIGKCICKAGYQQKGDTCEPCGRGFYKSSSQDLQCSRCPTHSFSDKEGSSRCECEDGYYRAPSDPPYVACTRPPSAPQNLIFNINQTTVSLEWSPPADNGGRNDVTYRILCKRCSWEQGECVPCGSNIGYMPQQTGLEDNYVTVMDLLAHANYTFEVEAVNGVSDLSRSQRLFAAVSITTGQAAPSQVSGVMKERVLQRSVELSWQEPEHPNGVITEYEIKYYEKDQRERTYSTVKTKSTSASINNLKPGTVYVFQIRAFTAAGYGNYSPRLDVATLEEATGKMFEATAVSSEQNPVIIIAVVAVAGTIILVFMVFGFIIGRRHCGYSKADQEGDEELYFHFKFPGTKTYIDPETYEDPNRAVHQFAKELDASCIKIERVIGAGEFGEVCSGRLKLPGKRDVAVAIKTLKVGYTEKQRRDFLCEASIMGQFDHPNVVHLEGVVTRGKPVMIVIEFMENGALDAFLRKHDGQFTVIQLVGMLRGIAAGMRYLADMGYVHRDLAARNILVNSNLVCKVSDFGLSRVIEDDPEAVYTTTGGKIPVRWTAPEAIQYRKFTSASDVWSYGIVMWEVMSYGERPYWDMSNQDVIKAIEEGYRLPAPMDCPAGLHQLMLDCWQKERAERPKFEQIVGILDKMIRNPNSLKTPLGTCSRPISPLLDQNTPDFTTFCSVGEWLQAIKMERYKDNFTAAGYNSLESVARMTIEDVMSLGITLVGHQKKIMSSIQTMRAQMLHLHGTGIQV
Chain of Epidermal growth factor receptor (P00533 whole entry): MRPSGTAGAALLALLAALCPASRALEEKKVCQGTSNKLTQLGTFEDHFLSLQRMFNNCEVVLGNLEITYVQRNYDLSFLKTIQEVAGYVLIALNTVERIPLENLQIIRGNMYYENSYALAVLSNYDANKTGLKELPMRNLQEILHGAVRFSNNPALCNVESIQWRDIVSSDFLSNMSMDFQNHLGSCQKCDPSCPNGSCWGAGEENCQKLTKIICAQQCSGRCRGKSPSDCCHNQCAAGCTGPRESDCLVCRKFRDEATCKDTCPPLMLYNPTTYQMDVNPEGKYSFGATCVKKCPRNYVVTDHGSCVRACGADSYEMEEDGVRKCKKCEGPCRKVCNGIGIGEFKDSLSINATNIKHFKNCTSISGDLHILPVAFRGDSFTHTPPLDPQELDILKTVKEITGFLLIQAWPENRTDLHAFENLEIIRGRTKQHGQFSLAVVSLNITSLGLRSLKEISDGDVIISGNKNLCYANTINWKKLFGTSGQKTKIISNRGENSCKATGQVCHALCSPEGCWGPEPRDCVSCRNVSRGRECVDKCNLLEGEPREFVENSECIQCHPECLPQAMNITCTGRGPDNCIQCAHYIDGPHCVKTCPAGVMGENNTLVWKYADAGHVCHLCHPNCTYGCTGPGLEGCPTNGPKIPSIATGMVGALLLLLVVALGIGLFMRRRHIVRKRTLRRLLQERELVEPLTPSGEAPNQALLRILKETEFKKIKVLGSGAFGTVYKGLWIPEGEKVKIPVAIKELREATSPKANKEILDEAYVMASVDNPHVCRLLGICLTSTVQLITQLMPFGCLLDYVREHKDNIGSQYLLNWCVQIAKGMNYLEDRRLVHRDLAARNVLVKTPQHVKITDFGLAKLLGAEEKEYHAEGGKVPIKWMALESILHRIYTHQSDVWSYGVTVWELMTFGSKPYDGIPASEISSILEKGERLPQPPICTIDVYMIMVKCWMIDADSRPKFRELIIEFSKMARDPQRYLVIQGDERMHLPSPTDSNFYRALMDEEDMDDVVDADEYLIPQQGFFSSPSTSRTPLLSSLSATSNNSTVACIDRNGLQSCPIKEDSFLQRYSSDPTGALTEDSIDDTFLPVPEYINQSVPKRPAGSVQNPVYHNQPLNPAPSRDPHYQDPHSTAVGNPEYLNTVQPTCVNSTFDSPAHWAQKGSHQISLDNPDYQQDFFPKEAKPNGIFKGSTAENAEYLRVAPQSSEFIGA
Chain of Misshapen-like kinase 1 (Q8N4C8 whole entry): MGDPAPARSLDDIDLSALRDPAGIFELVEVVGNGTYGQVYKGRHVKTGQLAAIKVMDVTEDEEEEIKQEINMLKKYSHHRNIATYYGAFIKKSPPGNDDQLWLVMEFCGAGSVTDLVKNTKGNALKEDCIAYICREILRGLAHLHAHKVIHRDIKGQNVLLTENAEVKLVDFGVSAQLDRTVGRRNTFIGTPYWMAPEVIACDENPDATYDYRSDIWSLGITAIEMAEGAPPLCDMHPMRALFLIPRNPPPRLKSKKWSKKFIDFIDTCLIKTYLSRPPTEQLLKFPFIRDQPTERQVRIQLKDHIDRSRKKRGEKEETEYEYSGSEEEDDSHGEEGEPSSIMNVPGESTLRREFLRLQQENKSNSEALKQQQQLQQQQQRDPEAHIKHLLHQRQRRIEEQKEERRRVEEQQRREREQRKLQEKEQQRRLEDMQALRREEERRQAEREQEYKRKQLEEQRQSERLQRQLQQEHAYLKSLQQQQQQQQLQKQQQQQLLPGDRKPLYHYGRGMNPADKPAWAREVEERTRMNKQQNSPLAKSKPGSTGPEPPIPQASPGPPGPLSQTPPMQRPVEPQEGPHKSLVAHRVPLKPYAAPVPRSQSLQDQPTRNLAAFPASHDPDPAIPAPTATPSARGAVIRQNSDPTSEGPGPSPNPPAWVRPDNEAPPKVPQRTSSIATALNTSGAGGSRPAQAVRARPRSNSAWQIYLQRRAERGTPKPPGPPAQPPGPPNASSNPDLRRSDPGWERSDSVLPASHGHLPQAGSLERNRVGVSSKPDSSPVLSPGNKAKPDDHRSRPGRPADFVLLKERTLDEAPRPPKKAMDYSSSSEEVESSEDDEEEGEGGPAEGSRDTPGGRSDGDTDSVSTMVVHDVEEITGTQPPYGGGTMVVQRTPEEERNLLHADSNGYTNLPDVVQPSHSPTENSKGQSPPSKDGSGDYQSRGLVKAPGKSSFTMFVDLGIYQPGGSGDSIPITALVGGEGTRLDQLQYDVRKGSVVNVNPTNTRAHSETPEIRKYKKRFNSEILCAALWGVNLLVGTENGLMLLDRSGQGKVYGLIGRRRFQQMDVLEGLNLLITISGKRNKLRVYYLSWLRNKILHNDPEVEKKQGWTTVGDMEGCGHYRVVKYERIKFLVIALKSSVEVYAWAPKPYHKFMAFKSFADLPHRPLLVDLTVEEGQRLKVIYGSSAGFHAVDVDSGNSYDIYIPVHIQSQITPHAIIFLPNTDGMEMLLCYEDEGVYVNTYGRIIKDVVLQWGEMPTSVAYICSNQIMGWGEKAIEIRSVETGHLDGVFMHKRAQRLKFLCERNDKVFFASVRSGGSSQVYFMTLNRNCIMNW
Chain of Membrane-associated progesterone receptor component 1 (O00264 whole entry): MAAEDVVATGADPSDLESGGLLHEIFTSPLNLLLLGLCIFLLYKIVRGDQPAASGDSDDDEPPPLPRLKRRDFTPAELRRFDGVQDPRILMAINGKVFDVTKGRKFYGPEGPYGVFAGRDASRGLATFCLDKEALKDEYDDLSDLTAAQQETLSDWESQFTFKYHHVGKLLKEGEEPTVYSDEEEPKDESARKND
Chain of Serine/threonine-protein kinase 38-like (Q9Y2H1 whole entry): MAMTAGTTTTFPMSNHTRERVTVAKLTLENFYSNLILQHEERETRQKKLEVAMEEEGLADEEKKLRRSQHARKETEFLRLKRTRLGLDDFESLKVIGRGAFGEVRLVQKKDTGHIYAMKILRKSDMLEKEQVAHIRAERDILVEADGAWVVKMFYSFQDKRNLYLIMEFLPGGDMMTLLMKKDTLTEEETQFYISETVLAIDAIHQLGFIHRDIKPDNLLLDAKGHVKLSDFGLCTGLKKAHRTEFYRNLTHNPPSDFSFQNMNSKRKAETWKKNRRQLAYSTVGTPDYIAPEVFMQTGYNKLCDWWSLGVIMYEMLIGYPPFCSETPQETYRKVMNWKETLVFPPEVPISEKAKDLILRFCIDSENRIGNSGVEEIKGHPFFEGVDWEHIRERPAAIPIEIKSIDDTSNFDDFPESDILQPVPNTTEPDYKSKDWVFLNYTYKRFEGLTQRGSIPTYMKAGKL

As usually defined, the Kd is a measure of binding affinity in units of concentration. Turning to `Cc1ccc(-n2nc(C(C)(C)C)cc2NC(=O)NCc2cc(F)ccc2Oc2ccc3c(cnn3CCO)c2)cc1` [PEXMETINIB], the Kd is > 30 µM (inactive) in test [1]; 3.31 µM (active) in test [2]; > 30 µM (inactive) in test [3]; > 30 µM (inactive) in test [4]; > 30 µM (inactive) in test [5]; > 30 µM (inactive) in test [6]. Moreover, the Kd in test [7] and in test [8] was > 30 µM (inactive) throughout.
